Data reported in patent US20150216177A1, “METHOD FOR SELECTIVELY INHIBITING SULFATE-REDUCING BACTERIUM, GYPSUM COMPOSITION CAPABLE OF INHIBITING PROLIFERATION OF SULFATE-REDUCING BACTERIUM BY SAID METHOD, GYPSUM-TYPE SOLIDIFYING MATERIAL, AND GYPSUM-TYPE BUILDING MATERIAL” (priority 2012, published 2015).

Experiments:
Assay type in all cases: cell-based
[1] = system: Sulfate-reducing bacterium: Desulfovibrio vulgaris DSM 644T
[2] = system: Colon bacillus: Escherichia coli NBRC 102203T; test: Proliferation-inhibiting (bacteriostatic) effect in Al-added culture medium, protein amount by BCA method; settings: 2 mM or 20 mM Al solution in culture medium, anaerobic shaking culture 37° C.; FIG. 2 / FIG. 5
[3] = system: Butyric acid bacterium: Clostridium butyricum NBRC 13949T; settings: 2 mM or 20 mM Al solution in culture medium, anaerobic shaking culture 37° C.; FIG. 3 / FIG. 6

| Compound | proliferation of the sulfate-reducing bacterium (increase in protein amount) [1] | proliferation of the colon bacillus (increase in protein amount) [2] | proliferation of the butyric acid bacterium (increase in protein amount) [3] | selective bacteriostatic effect (sulfate-reducing bacterium versus colon bacillus and butyric acid bacterium) [1] |
| --- | --- | --- | --- | --- |
| [Cl][Al]([Cl])[Cl] [Comparative Example 1, AlCl3, reference compound] | inhibited | inhibited | inhibited |  |
| EDTA/Al chelate [Example 3] |  |  |  | same selective bacteriostatic effects as in Example 1 were also recognized |
| citric acid/Al chelate [Example 1] | inhibited | not inhibited | not inhibited | selective bacteriostatic effect was recognized |
| oxalic acid/Al chelate [Example 2] |  |  |  | same selective bacteriostatic effects as in Example 1 were also recognized |
